In PubChem BioAssay AID1794813:
Where “and” joins values, the source holds several entries; their conditions need not be identical. Identical values can stand only once.

Biological target: Sodium-dependent phosphate transport protein 2A (Homo sapiens) (UniProt Q06495)
Assay: PubChem AID 1794813
Conditions: HEK293 JumpIn SLC34A1, FLIPR membrane potential dye

Sequence of Sodium-dependent phosphate transport protein 2A (Homo sapiens) (Q06495 whole entry, looked up): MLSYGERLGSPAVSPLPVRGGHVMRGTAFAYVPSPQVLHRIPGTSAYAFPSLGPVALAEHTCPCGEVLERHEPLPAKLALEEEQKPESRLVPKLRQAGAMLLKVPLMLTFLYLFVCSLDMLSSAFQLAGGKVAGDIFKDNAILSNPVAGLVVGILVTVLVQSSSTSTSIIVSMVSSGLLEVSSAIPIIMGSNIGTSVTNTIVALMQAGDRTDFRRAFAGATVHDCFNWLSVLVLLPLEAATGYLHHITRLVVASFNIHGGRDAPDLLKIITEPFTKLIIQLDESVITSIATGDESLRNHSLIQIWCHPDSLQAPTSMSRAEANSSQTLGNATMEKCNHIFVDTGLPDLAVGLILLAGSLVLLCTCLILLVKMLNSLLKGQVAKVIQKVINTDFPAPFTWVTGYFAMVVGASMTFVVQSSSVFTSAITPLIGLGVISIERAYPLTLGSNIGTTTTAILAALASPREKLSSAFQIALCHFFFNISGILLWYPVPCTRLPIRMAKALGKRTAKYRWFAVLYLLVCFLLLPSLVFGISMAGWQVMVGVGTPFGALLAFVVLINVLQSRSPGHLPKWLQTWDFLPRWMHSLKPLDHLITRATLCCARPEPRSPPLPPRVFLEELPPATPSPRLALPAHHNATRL

EC50 (substrate-evoked depolarization, activation): 32 µM and 39 µM
Structure (SMILES): O=P(O)(O)O
